Results reported in patent publication US5213974A, “Fermentation process for preparing antibiotics mureidomycins A, B, C and D” (priority 1986, dated 1993).
≈ marks a conversion by molar mass, not a printed value.

Tests used:
mice = assay: Toxicity in mice, intravenous; assay type: in vivo
[1] = system: Pseudomonas aeruginosa SANK 71873; assay: MIC, two-fold agar dilution method, Mueller-Hinton agar; assay type: cell-based
Procedure: (§1) The minimal inhibitory concentrations (MIC) of mureidomycins A, B, C and D against various gram-positive and gram-negative bacteria were determined by the two-fold agar dilution method, using a Mueller-Hinton agar medium (produced by Difco).

[2] = system: Pseudomonas aeruginosa SANK 75775; assay: as above; assay type: cell-based
Procedure: as §1

[3] = system: Pseudomonas acidovorans SANK 72782; assay: as above; assay type: cell-based
Procedure: as §1

[4] = system: Pseudomonas aeruginosa SANK 73375; assay: as above; assay type: cell-based
Procedure: as §1

[5] = system: Pseudomonas aeruginosa SANK 73379; assay: as above; assay type: cell-based
Procedure: as §1

[6] = system: Pseudomonas aeruginosa SANK 75175; assay: as above; assay type: cell-based
Procedure: as §1

[7] = system: Proteus mirabilis SANK 70461; assay: as above; assay type: cell-based
Procedure: as §1

[8] = system: Pseudomonas aeruginosa SANK 70579; assay: as above; assay type: cell-based
Procedure: as §1

[9] = system: Pseudomonas aeruginosa SANK 70970; assay: as above; assay type: cell-based
Procedure: as §1

[10] = system: Esherichia coli NIHJ JC-2; assay: as above; assay type: cell-based
Procedure: as §1

[11] = system: Pseudomonas aeruginosa SANK 70479; assay: as above; assay type: cell-based
Procedure: as §1

[12] = system: Pseudomonas aeruginosa NRRLB 1000; assay: as above; assay type: cell-based
Procedure: as §1

[13] = system: Pseudomonas aeruginosa ATCC 13388; assay: as above; assay type: cell-based
Procedure: as §1

[14] = system: Pseudomonas aeruginosa NCTC 10490; assay: as above; assay type: cell-based
Procedure: as §1

[15] = system: Staphylococcus aureus FDA 209P JC-1; assay: as above; assay type: cell-based
Procedure: as §1

[16] = system: Pseudomonas aeruginosa SANK 73279; assay: as above; assay type: cell-based
Procedure: as §1

[17] = system: Serratia marcescens SANK 73060; assay: as above; assay type: cell-based
Procedure: as §1

[18] = system: Klebsiella pneumoniae PCI 602; assay: as above; assay type: cell-based
Procedure: as §1

[19] = Solubility in water and organic solvents; assay type: physicochemical
[20] = system: gram-negative bacteria, particularly bacteria of the genus Pseudomonas; assay: Antibacterial activity, summary of the MIC data; assay type: cell-based
Procedure: as §1
From the above data, mureidomycins A, B, C and D are active against gram-negative bacteria, particularly against bacteria of the genus Pseudomonas.

Molecule	MIC [1]	MIC [2]	MIC [3]	MIC [4]	MIC [5]	MIC [6]	MIC [7]	MIC [8]	MIC [9]	MIC [10]	MIC [11]	MIC [12]	MIC [13]	MIC [14]	MIC [15]	MIC [16]	MIC [17]	MIC [18]	Solubility ([19]; acetone)	Solubility ([19]; benzene)	further results
CSCC[C@H](NC(=O)NC(Cc1cccc(O)c1)C(=O)O)C(=O)N[C@@H](C(=O)NC=C1CC(O)C(n2ccc(=O)[nH]c2=O)O1)C(C)N(C)C(=O)[C@H](Cc1cccc(O)c1)NC(=O)CN (some centres unmarked) [Mureidomycin C, mureidomycin C]	1.56 µg/mL (≈ 1.74 µM)	1.56 µg/mL (≈ 1.74 µM)	> 200 µg/mL	3.13 µg/mL (≈ 3.49 µM)	6.25 µg/mL (≈ 6.96 µM)	3.13 µg/mL (≈ 3.49 µM)	> 200 µg/mL	< 0.1 µg/mL	1.56 µg/mL (≈ 1.74 µM)	> 200 µg/mL	1.56 µg/mL (≈ 1.74 µM)	3.13 µg/mL (≈ 3.49 µM)	3.13 µg/mL (≈ 3.49 µM)	0.4 µg/mL (≈ 0.445 µM)	> 200 µg/mL	1.56 µg/mL (≈ 1.74 µM)	> 200 µg/mL	12.5 µg/mL (≈ 13.9 µM)	slightly soluble	insoluble	toxicity (mice; mice, 400 mg/kg intravenously): No toxicity was observed; Solubility ([19]; chloroform): insoluble; Solubility ([19]; ethyl acetate): insoluble; Solubility ([19]; methanol): Soluble; Solubility ([19]; water): Soluble; activity against gram-negative bacteria [20]: active
mureidomycin D	6.25 µg/mL	6.25 µg/mL	100 µg/mL	6.25 µg/mL	50 µg/mL	12.5 µg/mL	> 200 µg/mL	0.2 µg/mL	3.13 µg/mL	> 200 µg/mL	6.25 µg/mL	6.25 µg/mL	6.25 µg/mL	1.56 µg/mL	> 200 µg/mL	6.25 µg/mL	> 200 µg/mL	25 µg/mL	slightly soluble	insoluble	toxicity (mice; mouse, in vivo, iv, 400 mg/kg): No toxicity was observed; Solubility ([19]; chloroform): insoluble; Solubility ([19]; ethyl acetate): insoluble; Solubility ([19]; methanol): Soluble; Solubility ([19]; water): Soluble; activity against gram-negative bacteria [20]: active
CSCC[C@H](NC(=O)NC(Cc1cccc(O)c1)C(=O)O)C(=O)N[C@@H](C(=O)NC=C1CC(O)C(n2ccc(=O)[nH]c2=O)O1)C(C)N(C)C(=O)[C@@H](N)Cc1cccc(O)c1 (some centres unmarked) [Mureidomycin A, mureidomycin A]	6.25 µg/mL (≈ 7.43 µM)	6.25 µg/mL (≈ 7.43 µM)	> 200 µg/mL	12.5 µg/mL (≈ 14.9 µM)	100 µg/mL (≈ 119 µM)	25 µg/mL (≈ 29.7 µM)	> 200 µg/mL	< 0.1 µg/mL	12.5 µg/mL (≈ 14.9 µM)	> 200 µg/mL	6.25 µg/mL (≈ 7.43 µM)	25 µg/mL (≈ 29.7 µM)	25 µg/mL (≈ 29.7 µM)	0.4 µg/mL (≈ 0.476 µM)	200 µg/mL (≈ 238 µM)	12.5 µg/mL (≈ 14.9 µM)	> 200 µg/mL	25 µg/mL (≈ 29.7 µM)	slightly soluble	insoluble	toxicity (mice; mice, 400 mg/kg intravenously): No toxicity was observed; Solubility ([19]; chloroform): insoluble; Solubility ([19]; ethyl acetate): insoluble; Solubility ([19]; methanol): Soluble; Solubility ([19]; water): Soluble; activity against gram-negative bacteria [20]: active
CSCC[C@H](NC(=O)NC(Cc1cccc(O)c1)C(=O)O)C(=O)N[C@@H](C(=O)N/C=C1\CC(O)C(N2CCC(=O)NC2=O)O1)C(C)N(C)C(=O)[C@@H](N)Cc1cccc(O)c1 (some centres unmarked) [Mureidomycin B, mureidomycin B]	25 µg/mL (≈ 29.7 µM)	200 µg/mL (≈ 237 µM)	200 µg/mL (≈ 237 µM)	25 µg/mL (≈ 29.7 µM)	200 µg/mL (≈ 237 µM)	50 µg/mL (≈ 59.3 µM)	> 200 µg/mL	0.2 µg/mL (≈ 0.237 µM)	25 µg/mL (≈ 29.7 µM)	> 200 µg/mL	12.5 µg/mL (≈ 14.8 µM)	50 µg/mL (≈ 59.3 µM)	50 µg/mL (≈ 59.3 µM)	0.8 µg/mL (≈ 0.949 µM)	> 200 µg/mL	25 µg/mL (≈ 29.7 µM)	> 200 µg/mL	25 µg/mL (≈ 29.7 µM)	slightly soluble	insoluble	toxicity (mice; mice, 400 mg/kg intravenously): No toxicity was observed; Solubility ([19]; chloroform): insoluble; Solubility ([19]; ethyl acetate): insoluble; Solubility ([19]; methanol): Soluble; Solubility ([19]; water): Soluble; activity against gram-negative bacteria [20]: active
